# Reference: PubChem BioAssay AID330 (DTP/NCI, 2004)
# Where “and” joins values, the source holds several entries; their conditions need not be identical. Identical values can stand only once. Inconclusive results and toxic doses are left out.
# Test system: P388 leukemia ip, CD2F1 mice, survival T/C
# Assay: NCI In Vivo Anticancer Drug Screen. Data for tumor model P388 Leukemia (intraperitoneal) in CD2F1 (CDF1) mice
# Conditions: endpoint: median survival time, higher = longer survival
# Method in brief: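 Mice carrying the transplanted tumor received test compound or vehicle. Survival was recorded in each group, and the value is the treated-group measurement divided by that of the vehicle-treated control group.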
# [1] = dose: 60.0 mg/kg/injection, schedule: Q01DX005 (ip), vehicle: saline with Tween-80
# [2] = dose: 120.0 mg/kg/injection, schedule: Q01DX005 (ip), vehicle: saline with Tween-80
# [3] = dose: 240.0 mg/kg/injection, schedule: Q01DX005 (ip), vehicle: saline with Tween-80
# [4] = dose: 100.0 mg/kg/injection, schedule: Q04DX002 (ip), vehicle: saline with Tween-80
# [5] = dose: 200.0 mg/kg/injection, schedule: Q04DX002 (ip), vehicle: saline with Tween-80
# [6] = dose: 25.0 mg/kg/injection, schedule: Q01DX009 (ip), vehicle: Klucel (hydroxypropylcellulose) (HPC)
# [7] = dose: 50.0 mg/kg/injection, schedule: Q01DX009 (ip), vehicle: Klucel (hydroxypropylcellulose) (HPC)
# [8] = dose: 100.0 mg/kg/injection, schedule: Q01DX009 (ip), vehicle: Klucel (hydroxypropylcellulose) (HPC)
# [9] = dose: 100.0 mg/kg/injection, schedule: Q01DX001 (ip), vehicle: saline with Tween-80
# [10] = dose: 50.0 mg/kg/injection, schedule: Q01DX005 (ip), vehicle: saline with Tween-80
# [11] = dose: 100.0 mg/kg/injection, schedule: Q01DX005 (ip), vehicle: saline with Tween-80
# [12] = dose: 200.0 mg/kg/injection, schedule: Q01DX005 (ip), vehicle: saline with Tween-80
# [13] = dose: 25.0 mg/kg/injection, schedule: Q01DX009 (ip), vehicle: saline with Tween-80
# [14] = dose: 50.0 mg/kg/injection, schedule: Q01DX009 (ip), vehicle: saline with Tween-80
smiles,measurement,setting,value
BrCC1C[n+]2c(cc(-c3ccccc3)cc2-c2ccccc2)S1 (stereo not given),T/C,"dose: 3.75 mg/kg/injection, schedule: Q01DX005 (ip), vehicle: Klucel (hydroxypropylcellulose) (HPC)",100 % of control
same,T/C,"dose: 7.5 mg/kg/injection, schedule: Q01DX005 (ip), vehicle: Klucel (hydroxypropylcellulose) (HPC)",99 % of control
[Cl][Pd][Cl].[NH-]C1CCCC2CCC[N-]C12 (stereo not given),T/C,"dose: 12.5 mg/kg/injection, schedule: Q04DX002 (ip), vehicle: saline with Tween-80",104 % of control
same,T/C,"dose: 25.0 mg/kg/injection, schedule: Q04DX002 (ip), vehicle: saline with Tween-80",110 % of control
same,T/C,"dose: 50.0 mg/kg/injection, schedule: Q04DX002 (ip), vehicle: saline with Tween-80",104 % of control
O=C(c1ccccc1)C1C(c2ccccc2)C2(CCCCC2=O)C(c2ccccc2)CC1(O)c1ccccc1 (stereo not given),T/C,"dose: 3.12 mg/kg/injection, schedule: Q01DX001 (ip), vehicle: Klucel (hydroxypropylcellulose) (HPC)",98 % of control
same,T/C,"dose: 6.25 mg/kg/injection, schedule: Q01DX001 (ip), vehicle: Klucel (hydroxypropylcellulose) (HPC)",86 % of control
same,T/C,"dose: 12.5 mg/kg/injection, schedule: Q01DX001 (ip), vehicle: Klucel (hydroxypropylcellulose) (HPC)",86 % of control
same,T/C,"dose: 25.0 mg/kg/injection, schedule: Q01DX001 (ip), vehicle: Klucel (hydroxypropylcellulose) (HPC)",86 % of control
Oc1c(-c2ccccc2)nc2cnccn12,T/C,[1],100 % of control
same,T/C,[2],107 % of control
same,T/C,[3],107 % of control
CC(=O)OC1Cc2c(cc3c4c(cccc24)N(C(C)=O)C3)N(C)C1 (stereo not given),T/C,[4],105 % of control
same,T/C,[5],108 % of control
same,T/C,"dose: 400.0 mg/kg/injection, schedule: Q04DX002 (ip), vehicle: saline with Tween-80",100 % of control
O=C1C2CC(CN3CCCCC23)C2CCCCN12 (stereo not given),T/C,"dose: 6.2 mg/kg/injection, schedule: Q01DX007 (ip), vehicle: carboxymethylcellulose (CMC)",100 % of control
same,T/C,"dose: 12.5 mg/kg/injection, schedule: Q01DX007 (ip), vehicle: carboxymethylcellulose (CMC)",91 % of control
same,T/C,"dose: 25.0 mg/kg/injection, schedule: Q01DX007 (ip), vehicle: carboxymethylcellulose (CMC)",91 % of control
same,T/C,"dose: 37.5 mg/kg/injection, schedule: Q01DX009 (ip), vehicle: saline",95 % of control
same,T/C,"dose: 75.0 mg/kg/injection, schedule: Q01DX009 (ip), vehicle: saline",102 % of control
same,T/C,"dose: 150.0 mg/kg/injection, schedule: Q01DX009 (ip), vehicle: saline",101 % of control
COc1cccc2c1C(=O)c1c(O)c3c(c(O)c1C2=O)C[C@@](O)(/C(C)=N/NC(=O)c1cccs1)C[C@@H]3OC1CC(N)C(O)C(C)O1 (stereo not given in full),T/C,"dose: 1.56 mg/kg/injection, schedule: Q04DX003 (ip), vehicle: saline",169 % of control
same,T/C,"dose: 3.13 mg/kg/injection, schedule: Q04DX003 (ip), vehicle: saline",178 % of control
same,T/C,"dose: 6.25 mg/kg/injection, schedule: Q04DX003 (ip), vehicle: saline",191 % of control
same,T/C,"dose: 12.5 mg/kg/injection, schedule: Q04DX003 (ip), vehicle: saline",206 % of control
same,T/C,"dose: 25.0 mg/kg/injection, schedule: Q04DX003 (ip), vehicle: saline",104 % of control
C(CCOCC1CO1)COCC1CO1 (stereo not given),T/C,[6],108 % of control and 111 % of control
same,T/C,[7],110 % of control
same,T/C,[8],117 % of control
CC(=O)c1c(OCC(O)CN2CCCCC2)ccc2c(C)cc(=O)oc12 (stereo not given),T/C,[4],100 % of control
same,T/C,[5],101 % of control
CCCCCCCCCCCCCCCCOc1cccc(/C(=N/NS(C)(=O)=O)N2CCCCC2)c1,T/C,[7],89 % of control
same,T/C,[8],92 % of control
same,T/C,"dose: 200.0 mg/kg/injection, schedule: Q01DX009 (ip), vehicle: Klucel (hydroxypropylcellulose) (HPC)",91 % of control
CSc1nc(NC2OCC(O)C(O)C2O)c(Cl)c(=O)n1C (stereo not given),T/C,[1],103 % of control
same,T/C,[2],104 % of control
same,T/C,[3],100 % of control
C[C@@H]1C[C@@H](O)[C@]2(O)O[C@@H]3C[C@@]4(C=O)[C@@H](CC=C5[C@@H]4CC[C@]4(C)C(C6=CC(=O)OC6)CC[C@]54O)C[C@H]3O[C@@H]2O1 (stereo not given in full),T/C,"dose: 1.75 mg/kg/injection, schedule: Q01DX005 (ip), vehicle: saline with Tween-80",94 % of control
same,T/C,"dose: 3.5 mg/kg/injection, schedule: Q01DX005 (ip), vehicle: saline with Tween-80",100 % of control
same,T/C,"dose: 7.0 mg/kg/injection, schedule: Q01DX005 (ip), vehicle: saline with Tween-80",98 % of control
CN(C)NC(=O)[S-].CN(C)NC(=O)[S-].[Ni],T/C,"dose: 12.5 mg/kg/injection, schedule: Q01DX001 (ip), vehicle: saline with Tween-80",103 % of control
same,T/C,"dose: 25.0 mg/kg/injection, schedule: Q01DX001 (ip), vehicle: saline with Tween-80",111 % of control
same,T/C,"dose: 50.0 mg/kg/injection, schedule: Q01DX001 (ip), vehicle: saline with Tween-80",106 % of control and 96 % of control
same,T/C,[9],109 % of control
Cn1c(=O)[nH]c(N)c(NC=O)c1=O,T/C,[10],103 % of control
same,T/C,[11],101 % of control
same,T/C,[12],101 % of control
CCOC(=O)c1c(N)sc2c1CCC2,T/C,"dose: 100.0 mg/kg/injection, schedule: Q01DX001 (ip), vehicle: saline sonified",100 % of control
same,T/C,"dose: 200.0 mg/kg/injection, schedule: Q01DX001 (ip), vehicle: saline sonified",95 % of control
same,T/C,"dose: 400.0 mg/kg/injection, schedule: Q01DX001 (ip), vehicle: saline sonified",100 % of control
CCCCCCCCCCCCCC1=C(O)C(=O)C=C(O)C1=O,T/C,"dose: 1.0 mg/kg/injection, schedule: Q01DX005 (ip), vehicle: Klucel (hydroxypropylcellulose) (HPC)",100 % of control
same,T/C,"dose: 2.0 mg/kg/injection, schedule: Q01DX005 (ip), vehicle: Klucel (hydroxypropylcellulose) (HPC)",105 % of control
same,T/C,"dose: 4.0 mg/kg/injection, schedule: Q01DX005 (ip), vehicle: Klucel (hydroxypropylcellulose) (HPC)",95 % of control
same,T/C,"dose: 8.0 mg/kg/injection, schedule: Q01DX005 (ip), vehicle: Klucel (hydroxypropylcellulose) (HPC)",102 % of control
same,T/C,"dose: 16.0 mg/kg/injection, schedule: Q01DX005 (ip), vehicle: Klucel (hydroxypropylcellulose) (HPC)",98 % of control
O/N=C(/Cc1nc2cc(Cl)c(Cl)cc2nc1C/C(=N/O)c1cccc2ccccc12)c1cccc2ccccc12,T/C,[1],91 % of control
same,T/C,[2],99 % of control
same,T/C,[3],94 % of control
CC(C)N=C(N)/N=C(\N)Nc1ccc2ccc3ccccc3c2c1,T/C,"dose: 6.25 mg/kg/injection, schedule: Q01DX009 (ip), vehicle: Klucel (hydroxypropylcellulose) (HPC)",105 % of control
same,T/C,"dose: 12.5 mg/kg/injection, schedule: Q01DX009 (ip), vehicle: Klucel (hydroxypropylcellulose) (HPC)",113 % of control
same,T/C,[6],103 % of control
COC(=O)CC(=O)C(C)SC (stereo not given),T/C,[13],100 % of control
same,T/C,[14],109 % of control
same,T/C,"dose: 100.0 mg/kg/injection, schedule: Q01DX009 (ip), vehicle: saline with Tween-80",97 % of control
NS(=O)(=O)c1cc([N+](=O)[O-])ccc1C(=O)OC1CCCCC1,T/C,"dose: 50.0 mg/kg/injection, schedule: Q01DX005 (ip), vehicle: Klucel (hydroxypropylcellulose) (HPC)",104 % of control
same,T/C,"dose: 100.0 mg/kg/injection, schedule: Q01DX005 (ip), vehicle: Klucel (hydroxypropylcellulose) (HPC)",113 % of control
same,T/C,"dose: 200.0 mg/kg/injection, schedule: Q01DX005 (ip), vehicle: Klucel (hydroxypropylcellulose) (HPC)",92 % of control
C/C=C/c1cc(OC)c2c(c1)[C@H](C)C(c1ccc3c(c1)OCO3)O2 (stereo not given in full),T/C,"dose: 37.5 mg/kg/injection, schedule: Q01DX005 (ip), vehicle: Klucel (hydroxypropylcellulose) (HPC)",97 % of control
same,T/C,"dose: 75.0 mg/kg/injection, schedule: Q01DX005 (ip), vehicle: Klucel (hydroxypropylcellulose) (HPC)",86 % of control
same,T/C,"dose: 150.0 mg/kg/injection, schedule: Q01DX005 (ip), vehicle: Klucel (hydroxypropylcellulose) (HPC)",88 % of control
same,T/C,"dose: 300.0 mg/kg/injection, schedule: Q01DX005 (ip), vehicle: Klucel (hydroxypropylcellulose) (HPC)",91 % of control
O=c1c(N=Nc2ccc(Br)cc2)c(O)n(-c2ccc(Cl)cc2)c(=S)n1-c1ccc(Br)cc1,T/C,[9],96 % of control
same,T/C,"dose: 200.0 mg/kg/injection, schedule: Q01DX001 (ip), vehicle: saline with Tween-80",95 % of control
same,T/C,"dose: 400.0 mg/kg/injection, schedule: Q01DX001 (ip), vehicle: saline with Tween-80",89 % of control
O=[N+]([O-])c1cccc(SNCCO)c1,T/C,"dose: 12.5 mg/kg/injection, schedule: Q01DX009 (ip), vehicle: saline with Tween-80",108 % of control
same,T/C,[13],100 % of control
same,T/C,[14],100 % of control and 94 % of control
Oc1ccc2ccc3cccc4ccc1c2c34,T/C,[10],100 % of control
same,T/C,[11],100 % of control
same,T/C,[12],100 % of control
